Series [1] can be described thus: solid-state form after storage at 40° C. and 75% relative humidity, analyzed by XRD. It is filed as physicochemical. The following applies: 3 months. The protocol:
As used in connection with the present invention, x-ray diffraction refers to x-ray diffraction by the powder diffraction technique (PXRD). X-ray powder diffraction analysis was performed using a Scintag powder diffractometer with variable goniometer, a Cu source, and a solid state detector. A standard round aluminum sample holder with zero background quartz plate was used. Samples were scanned from 2° to 40° 2θ at 3° per minute. Reflections are reported as peak maxima in the Intensity vs. 2θ plots, and are subject to the normal experimental error (uncertainty). Wet samples were promptly analyzed “as is,” i.e., without drying or grinding prior to the analysis.
Gatifloxacin form CH2 can also be made by heating form Ω to between about 25° C. and about 50° C. at a relative humidity of about 60% to about 80%, preferably for at least about one month. Gatifloxacin so formed is a mixture of form Ω and form CH2.
4. Gatifloxacin form Ω (3 g) was heated to 40° C. at 75% of relative humidity for 3 months.

For series [2] the following is noted: sesquihydrate compared with hemihydrate; cited from earlier work.
The conditions of series [3]: compared with the other crystalline forms of U.S. Pat. No. 6,413,969; cited from earlier work.
The conditions of series [4]: room temperature; compared with the other crystalline forms of U.S. Pat. No. 6,413,969; cited from earlier work.
The conditions of series [5]: compared with hemihydrate; cited from earlier work.

SMILES strings stand for the structures.

`COc1c(N2CCNC(C)C2)c(F)cc2c(=O)c(C(=O)O)cn(C3CC3)c12` (racemic) [form Ω, (±)-1-cyclopropyl-6-fluoro-1,4-dihydro-8-methoxy-7-(3-methyl-1-piperazinyl)-4-oxo-3-quinolinecarboxylic acid]: the “crystalline form found by XRD after storage” value in series [1] is “mixture of gatifloxacin form Ω and form CH2”. Regarding `COc1c(N2CCNC(C)C2)c(F)cc2c(=O)c(C(=O)O)cn(C3CC3)c12` (racemic) [hemihydrate, (±)-1-cyclopropyl-6-fluoro-1,4-dihydro-8-methoxy-7-(3-methyl-1-piperazinyl)-4-oxo-3-quinolinecarboxylic acid], the hygroscopicity entry in series [2] is on record as “hygroscopic”. `COc1c(N2CCNC(C)C2)c(F)cc2c(=O)c(C(=O)O)cn(C3CC3)c12` (racemic) [pentahydrate, (±)-1-cyclopropyl-6-fluoro-1,4-dihydro-8-methoxy-7-(3-methyl-1-piperazinyl)-4-oxo-3-quinolinecarboxylic acid]: in series [3], the thermodynamic stability entry is given as “most thermodynamically stable form”. The aqueous solubility entry in series [4] is “lowest”. As for `COc1c(N2CCNC(C)C2)c(F)cc2c(=O)c(C(=O)O)cn(C3CC3)c12` (racemic) [sesquihydrate, (±)-1-cyclopropyl-6-fluoro-1,4-dihydro-8-methoxy-7-(3-methyl-1-piperazinyl)-4-oxo-3-quinolinecarboxylic acid], the hygroscopicity entry in series [2] was “less hygroscopic”. In addition, the stability in manufacturing result in series [5] is given as “more stable in manufacturing”.

The values above are taken from patent US7301024B2, “Crystalline forms of gatifloxacin and processes for preparation” (Teva Pharmaceutical Industries Ltd., priority 2002, dated 2007).
